Literature values in patent publication US6514527B1, “Compositions comprising a mixture of bioflavonols” (Merck Patentgesellschaft, priority 1998, dated 2003).

Details: orally administered

time to reach peak | SMILES
about 0.70 h | O=c1c(O[C@@H]2O[C@H](CO)[C@@H](O)[C@H](O)[C@H]2O)c(-c2ccc(O)c(O)c2)oc2cc(O)cc(O)c12 [isoquercetin]
about 3 h | O=c1c(O)c(-c2ccc(O)c(O)c2)oc2cc(O)cc(O)c12 [quercetin]
